From patent US11491120B2, “Pharmacological prophylactics against stress-induced affective disorders in females” (The Trustees of Columbia University in the City of New York, priority 2017, dated 2022)
“Also recorded” adds a separate entry of the source.

Assays:
female 129S6/SvEv mice [1] = assay: Forced swim test after 10-day chronic immobilization stress (CIS); type: in vivo, mouse; conditions: 10 mg/kg, 1 week prophylactic drug
Protocol: The CIS procedure induces a depressive-like phenotype in test subjects and has both predictive and face validity (54). Here, we used an adapted protocol from Ramirez et al. (55).
As previously tested in male mice (18), we validated our findings in a model of chronic stress. […] Drug dosages were chosen based on results from FIG. 1 and used for the remainder of the project unless otherwise specified. One week later, a 10-day CIS protocol was administered. Subsequently, mice were tested in the FST.

female 129S6/SvEv mice [2] = assay: Forced swim test (FST), immobility time, after stress; conditions: for p, Sal vs. drug, Fisher's PLSD: Immobility Time (min 1-6), Forced Swim Test Day 2 / p, Sal vs. drug, Fisher's PLSD: Immobility Time Average (min 3-6), Forced Swim Test Day 2: 3 day prophylactic drug
[3] = 2.5 mg/kg, 1 week prophylactic drug
[4] = 10 mg/kg, 1 week prophylactic drug
[5] = 10 mg/kg, 1 week prophylactic drug, learned helplessness stress
[6] = 30 mg/kg, 1 week prophylactic drug
[7] = Forced Swim Test Day 1, Dunnett test Sal vs. drug (2.5), 1 week prophylactic drug
[8] = Forced Swim Test Day 1, Dunnett test Sal vs. drug (10), 1 week prophylactic drug

With `CNC1(c2ccccc2Cl)CCCCC1=O` (racemic) [(R,S)-ketamine, (RS)-2-(2-chlorophenyl)-2-(methylamino)cyclohexanone] the “* (significance), Sal vs. drug, Fisher's PLSD: Immobility Time (min 2), Forced Swim Test Day 2” value (female 129S6/SvEv mice [1]) was “* (* p<0.05)”, the “* (significance), Sal vs. drug, Fisher's PLSD: Immobility Time (min 5), Forced Swim Test Day 2” value (female 129S6/SvEv mice [1]) was “** (** p<0.01)” and the “* (significance), Sal vs. drug, Fisher's PLSD: Immobility Time (min 6), Forced Swim Test Day 1” value (female 129S6/SvEv mice [1]) was “** (** p<0.01)”. The “* (significance), Sal vs. drug, Fisher's PLSD: Immobility Time (min 6), Forced Swim Test Day 2” value (female 129S6/SvEv mice [1]) was “** (** p<0.01)”, the “* (significance), Sal vs. drug, Fisher's PLSD: Immobility Time Average (min 3-6), Forced Swim Test Day 2” value (female 129S6/SvEv mice [1]) was “** (** p<0.01)” and the “p, Sal vs. drug, Fisher's PLSD: Immobility Time (min 1), Forced Swim Test Day 1” value (female 129S6/SvEv mice [1]) was 0.1619. For the same compound, the “p, Sal vs. drug, Fisher's PLSD: Immobility Time (min 1), Forced Swim Test Day 2” value (female 129S6/SvEv mice [1]) was 0.0533, the “p, Sal vs. drug, Fisher's PLSD: Immobility Time (min 2), Forced Swim Test Day 1” value (female 129S6/SvEv mice [1]) was 0.4051 and the “p, Sal vs. drug, Fisher's PLSD: Immobility Time (min 2), Forced Swim Test Day 2” value (female 129S6/SvEv mice [1]) was 0.0325. The “p, Sal vs. drug, Fisher's PLSD: Immobility Time (min 3), Forced Swim Test Day 1” value (female 129S6/SvEv mice [1]) was 0.5575, the “p, Sal vs. drug, Fisher's PLSD: Immobility Time (min 4), Forced Swim Test Day 1” value (female 129S6/SvEv mice [1]) was 0.4015 and the “p, Sal vs. drug, Fisher's PLSD: Immobility Time (min 5), Forced Swim Test Day 1” value (female 129S6/SvEv mice [1]) was 0.4985. The “p, Sal vs. drug, Fisher's PLSD: Immobility Time (min 5), Forced Swim Test Day 2” value (female 129S6/SvEv mice [1]) was 0.0011, the “p, Sal vs. drug, Fisher's PLSD: Immobility Time (min 6), Forced Swim Test Day 1” value (female 129S6/SvEv mice [1]) was 0.0022 and the “p, Sal vs. drug, Fisher's PLSD: Immobility Time (min 6), Forced Swim Test Day 2” value (female 129S6/SvEv mice [1]) was 0.0006. For the same compound, the “p, Sal vs. drug, Fisher's PLSD: Immobility Time Average (min 3-6), Forced Swim Test Day 2” value (female 129S6/SvEv mice [1]) was 0.0005, the “p, Sal vs. drug, Fishers PLSD: Immobility Time Average (min 1-6), Forced Swim Test Day 1” value (female 129S6/SvEv mice [1]) was 0.1873 and the “p, Sal vs. drug, Dunnett test: Immobility Time (min 1), Forced Swim Test Day 2” value (female 129S6/SvEv mice [2]; [3]) was 0.5849. The “p, Sal vs. drug, Dunnett test: Immobility Time (min 1-6), Forced Swim Test Day 2” value (female 129S6/SvEv mice [2]; [3]) was 0.8314, the “p, Sal vs. drug, Dunnett test: Immobility Time (min 2), Forced Swim Test Day 2” value (female 129S6/SvEv mice [2]; [3]) was 0.9770 and the “p, Sal vs. drug, Dunnett test: Immobility Time (min 4), Forced Swim Test Day 2” value (female 129S6/SvEv mice [2]; [3]) was 0.9997. The “p, Sal vs. drug, Dunnett test: Immobility Time (min 5), Forced Swim Test Day 2” value (female 129S6/SvEv mice [2]; [3]) was 0.9999, the “p, Sal vs. drug, Dunnett test: Immobility Time (min 6), Forced Swim Test Day 2” value (female 129S6/SvEv mice [2]; [3]) was 0.9686 and the “p, Sal vs. drug, Dunnett test: Immobility Time Average (min 3-6), Forced Swim Test Day 2” value (female 129S6/SvEv mice [2]; [3]) was 0.9990. For the same compound, the “p, Sal vs. drug, Fisher's PLSD: Immobility Time (min 1-6), Forced Swim Test Day 2” value (female 129S6/SvEv mice [2]; 2.5 mg/kg) was 0.1441, the “p, Sal vs. drug, Fisher's PLSD: Immobility Time Average (min 3-6), Forced Swim Test Day 2” value (female 129S6/SvEv mice [2]; 2.5 mg/kg) was 0.3992 and the “* (significance), Sal vs. drug, Dunnett test: Immobility Time (min 1-6), Forced Swim Test Day 2” value (female 129S6/SvEv mice [2]; [4]) was “** (** p<0.01)”. The “* (significance), Sal vs. drug, Dunnett test: Immobility Time (min 4), Forced Swim Test Day 2” value (female 129S6/SvEv mice [2]; [4]) was “* (* p<0.05)”, the “* (significance), Sal vs. drug, Dunnett test: Immobility Time (min 5), Forced Swim Test Day 2” value (female 129S6/SvEv mice [2]; [4]) was “* (* p<0.05)” and the “* (significance), Sal vs. drug, Dunnett test: Immobility Time Average (min 3-6), Forced Swim Test Day 2” value (female 129S6/SvEv mice [2]; [4]) was “** (** p<0.01)”. The “p, Sal vs. drug, Dunnett test: Immobility Time (min 1), Forced Swim Test Day 2” value (female 129S6/SvEv mice [2]; [4]) was 0.0825, the “p, Sal vs. drug, Dunnett test: Immobility Time (min 1-6), Forced Swim Test Day 2” value (female 129S6/SvEv mice [2]; [4]) was 0.0006 and the “p, Sal vs. drug, Dunnett test: Immobility Time (min 2), Forced Swim Test Day 2” value (female 129S6/SvEv mice [2]; [4]) was 0.0675. The “p, Sal vs. drug, Dunnett test: Immobility Time (min 4), Forced Swim Test Day 2” value (female 129S6/SvEv mice [2]; [4]) was 0.0144, the “p, Sal vs. drug, Dunnett test: Immobility Time (min 5), Forced Swim Test Day 2” value (female 129S6/SvEv mice [2]; [4]) was 0.0149 and the “p, Sal vs. drug, Dunnett test: Immobility Time (min 6), Forced Swim Test Day 2” value (female 129S6/SvEv mice [2]; [4]) was 0.3306. The “p, Sal vs. drug, Dunnett test: Immobility Time Average (min 3-6), Forced Swim Test Day 2” value (female 129S6/SvEv mice [2]; [4]) was 0.0062, the “* (significance), Sal vs. drug, Fisher's PLSD: Immobility Time Average (min 3-6), Forced Swim Test Day 2” value (female 129S6/SvEv mice [2]; [5]) was “*** (*** p<0.0001)” and the “P, Sal vs. drug, Fisher's PLSD: Immobility Time Average (min 3-6), Forced Swim Test Day 2” value (female 129S6/SvEv mice [2]; [5]) was under 0.0001. The “p, Sal vs. drug, Fisher's PLSD: Immobility Time (min 1-6), Forced Swim Test Day 2” value (female 129S6/SvEv mice [2]; 10 mg/kg) was 0.1807, the “p, Sal vs. drug, Fisher's PLSD: Immobility Time Average (min 3-6), Forced Swim Test Day 2” value (female 129S6/SvEv mice [2]; 10 mg/kg) was 0.4394 and the “Immobility on FST Day 2, first minute, vs saline” value (female 129S6/SvEv mice [2]; 10 mg/kg, injection one hour prior to FST Day 1, female mice) was “significantly less immobile compared to saline mice; also recorded: significantly less immobile than saline mice during the first minute”. For the same compound, the “p, Sal vs. drug, Dunnett test: Immobility Time (min 1), Forced Swim Test Day 2” value (female 129S6/SvEv mice [2]; [6]) was 0.9167, the “p, Sal vs. drug, Dunnett test: Immobility Time (min 1-6), Forced Swim Test Day 2” value (female 129S6/SvEv mice [2]; [6]) was 0.1741 and the “p, Sal vs. drug, Dunnett test: Immobility Time (min 2), Forced Swim Test Day 2” value (female 129S6/SvEv mice [2]; [6]) was 0.7390. The “p, Sal vs. drug, Dunnett test: Immobility Time (min 4), Forced Swim Test Day 2” value (female 129S6/SvEv mice [2]; [6]) was 0.4082, the “p, Sal vs. drug, Dunnett test: Immobility Time (min 5), Forced Swim Test Day 2” value (female 129S6/SvEv mice [2]; [6]) was 0.3770 and the “p, Sal vs. drug, Dunnett test: Immobility Time (min 6), Forced Swim Test Day 2” value (female 129S6/SvEv mice [2]; [6]) was 0.8643. For the same compound, the “p, Sal vs. drug, Dunnett test: Immobility Time Average (min 3-6), Forced Swim Test Day 2” value (female 129S6/SvEv mice [2]; [6]) was 0.5537, the “p, Sal vs. drug, Fisher's PLSD: Immobility Time (min 1-6), Forced Swim Test Day 2” value (female 129S6/SvEv mice [2]; 30 mg/kg) was 0.0750 and the “p, Sal vs. drug, Fisher's PLSD: Immobility Time Average (min 3-6), Forced Swim Test Day 2” value (female 129S6/SvEv mice [2]; 30 mg/kg) was 0.3050. The “p, Immobility Time (min 1)” value (female 129S6/SvEv mice [2]; [7]) was 0.9806, the “p, Immobility Time (min 1-6)” value (female 129S6/SvEv mice [2]; [7]) was 0.1415 and the “p, Immobility Time (min 3)” value (female 129S6/SvEv mice [2]; [7]) was 0.9989. For the same compound, the “p, Immobility Time (min 4)” value (female 129S6/SvEv mice [2]; [7]) was 0.9991, the “p, Immobility Time (min 5)” value (female 129S6/SvEv mice [2]; [7]) was 0.9999 and the “p, Immobility Time (min 6)” value (female 129S6/SvEv mice [2]; [7]) was 0.9999. For the same compound, the “p, Immobility Time Average (min 3-6)” value (female 129S6/SvEv mice [2]; [7]) was 0.9994, the “* (significance), Immobility Time (min 3)” value (female 129S6/SvEv mice [2]; [8]) was “* (* p<0.05)” and the “p, Immobility Time (min 1)” value (female 129S6/SvEv mice [2]; [8]) was 0.9957. For the same compound, the “p, Immobility Time (min 1-6)” value (female 129S6/SvEv mice [2]; [8]) was 0.2256, the “p, Immobility Time (min 3)” value (female 129S6/SvEv mice [2]; [8]) was 0.0470 and the “p, Immobility Time (min 4)” value (female 129S6/SvEv mice [2]; [8]) was 0.3636. For the same compound, the “p, Immobility Time (min 5)” value (female 129S6/SvEv mice [2]; [8]) was 0.2596, the “p, Immobility Time (min 6)” value (female 129S6/SvEv mice [2]; [8]) was 0.1488 and the “p, Immobility Time Average (min 3-6)” value (female 129S6/SvEv mice [2]; [8]) was 0.0733. For the same compound, the “p, Immobility Time (min 1)” value (female 129S6/SvEv mice [2]; Forced Swim Test Day 1, Dunnett test Sal vs. drug (30), 1 week prophylactic drug) was 0.9955.
